Experimental data reported in ChEMBL document CHEMBL4354808, “Drugs for the Treatment of Zika Virus Infection” (J Med Chem, 2020).
Values belong to the compound of their own block, whether it stands above or below them.

Columns and labels:
[1] = Cytotoxicity against HBMEC after 24 hrs by resazurin-dye based Alamar blue assay; conditions: human
[2] = Inhibition of DHFR in Zika virus Mex2-81 infected in HBMEC assessed as antiviral activity incubated for 24 hrs
[3] = Cytotoxicity against human SNB19 cells; assay type: cell-based; conditions: SNB-19 cells
[4] = Cytotoxicity against HEK293 cells; assay type: cell-based; conditions: human
[5] = test system: Zika virus; assay: Antiviral activity against Zika virus infected in African green monkey Vero cells after 72 hrs by DAPI-staining based assay; assay type: functional, organism-based
[6] = Cytotoxicity against African green monkey Vero cells; assay type: cell-based; conditions: chlorocebus sabaeus
[7] = Cytotoxicity against human NSC; assay type: cell-based; conditions: NSC cells
[8] = test system: Zika virus; assay: Antiviral activity against Zika virus H/PAN/2016/BEI-259634 infected in human NSC by CellTiter-Glo assay; assay type: functional, organism-based
[9] = target: NS5 (Zika virus, UniProt A0A143MHK7); assay: Inhibition of Zika virus RNA-dependent RNA polymerase using poly(rC)/rG13 as substrate after 45 mins
[10] = test system: Zika virus; assay: Antiviral activity against Zika virus PLCal_ZV infected in Huh7 cells by Promega Viral ToxGlo Assay; assay type: functional, organism-based; conditions: Huh-7
[11] = Cytotoxicity against golden hamster BHK21 cells by Promega Viral ToxGlo Assay; assay type: cell-based, Mesocricetus auratus; conditions: BHK-21 cells
[12] = test system: Zika virus; assay: (§1) Inhibition of IMPDH in Zika virus MR766 infected in human HuH7 cells assessed as antiviral activity by measuring reduction in viral replication preincubated for 12 hrs followed by viral infection and measured day 2 post infection by qRT-PCR method; assay type: cell-based
[13] = as §1; assay type: cell-based; conditions: MR766, Huh-7
[14] = Cytotoxicity against human HuH7 cells by MTS assay; assay type: cell-based; conditions: Huh-7 cells
[15] = Selectivity ratio of CC50 for African green monkey Vero E6 cells to EC50 for Zika virus MR766 infected in African green monkey Vero E6 cells; assay type: toxicity, Vero C1008; conditions: read-out: Ratio CC50/EC50
[16] = Cytotoxicity against African green monkey Vero E6 cells by the MTS method; assay type: cell-based, Vero C1008; conditions: chlorocebus sabaeus
[17] = target: Nonstructural protein 3 (Zika virus, UniProt A0A024AXB9); assay: Inhibition of wild type Zika virus NS2B-NS3 protease preincubated for 30 mins followed by Pyr-RTKR-AMC substrate addition
[18] = test system: Zika virus; assay: Antiviral activity against Zika virus PA 259459 infected in SJL mouse assessed as decrease in viral RNA at 30 mg/kg dosed 5 times per day via drinking water for 5 days by RT-PCR relative to control; assay type: functional
[19] = Half life in SJL mouse infected with Zika virus PA259459 at 10 mg/kg, ip measured up to 2 hr post infection by LC-MS/MS analysis; assay type: ADME, organism-based; conditions: in vivo
[20] = Cytotoxicity against human Neural progenitor cells after 24 hrs by ATP-Lite assay; assay type: cell-based
[21] = test system: Zika virus; assay: Antiviral activity against Zika virus PLCal_ZV infected in human Neural progenitor cells; assay type: functional, organism-based
[22] = test system: Zika virus; assay: Antiviral activity against Zika virus PLCal_ZV infected in African green monkey Vero cells assessed as reduction in viral titer after 1 hr by plaque assay; assay type: functional, organism-based
[23] = test system: Zika virus; assay: Antiviral activity against Zika virus infected in African green monkey Vero E6 cells assessed as reduction in virus infectivity at 160 uM preincubated with virus for 1 hr followed by cell infection and measured after 96 hrs by crystal violet staining based assay relative to control; assay type: functional; conditions: Vero C1008
[24] = Cytotoxicity against African green monkey Vero E6 cells measured up to 24 to 72 hrs by MTT assay; assay type: cell-based, Vero C1008; conditions: chlorocebus sabaeus
[25] = test system: Zika virus; assay: Antiviral activity against Zika virus infected in African green monkey Vero E6 cells assessed as reduction in virus infectivity preincubated with virus for 1 hr followed by cell infection and measured after 96 hrs by crystal violet staining based assay; assay type: functional, organism-based; conditions: Vero C1008

NS5, sequence (A0A143MHK7 whole entry): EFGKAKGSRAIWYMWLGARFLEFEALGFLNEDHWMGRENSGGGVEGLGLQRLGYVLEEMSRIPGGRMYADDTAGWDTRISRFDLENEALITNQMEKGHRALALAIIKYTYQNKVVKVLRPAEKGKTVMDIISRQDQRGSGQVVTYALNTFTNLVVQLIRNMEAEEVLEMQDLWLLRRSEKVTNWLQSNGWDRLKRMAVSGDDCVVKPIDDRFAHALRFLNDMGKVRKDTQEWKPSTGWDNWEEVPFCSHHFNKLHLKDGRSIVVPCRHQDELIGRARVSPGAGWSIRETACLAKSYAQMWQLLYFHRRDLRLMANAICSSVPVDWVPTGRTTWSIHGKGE
Nonstructural protein 3, sequence (A0A024AXB9 whole entry): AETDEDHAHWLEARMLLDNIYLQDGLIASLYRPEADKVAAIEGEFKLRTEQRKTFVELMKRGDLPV

Structure (SMILES): CC[C@H]1CN2CCc3cc(OC)c(OC)cc3[C@@H]2C[C@@H]1C[C@H]1NCCc2cc(OC)c(OC)cc21 [EMETINE]
CC50 [3]: 0.086 µM
CC50 [4]: 0.18 µM

Structure (SMILES): COc1cc(NC(=O)Nc2cccc(CNC(=O)O[C@H]3CCOC3)c2)ccc1-c1cnco1 [MERIMEPODIB]
EC90 [12]: 1 µM
EC50 [13]: 0.6 µM
CC50 [14]: > 10 µM

Structure (SMILES): CCCCCOCc1c(Nc2ccc(S(N)(=O)=O)cc2)nc(N2CCOCC2)nc1C(=O)NCCOc1ccccc1
selectivity ratio [15]: > 41
CC50 [16]: > 83.5 µM

Structure (SMILES): CCN(CC)Cc1cc(Nc2ccnc3cc(Cl)ccc23)ccc1O [AMODIAQUINE]
EC50 [21]: 2.8 to 4.4 µM
EC50 [22]: 2.8 to 4.4 µM

Now from value to compound, other results behind:

EC50 [2]: 0.28 µM
Structure (SMILES): CN(Cc1cnc2nc(N)nc(N)c2n1)c1ccc(C(=O)N[C@@H](CCC(=O)O)C(=O)O)cc1 [METHOTREXATE]
CC50 at 24 h [1]: > 10 µM

EC50 [5]: 5.95 µM
Structure (SMILES): O=C(c1cc(Cl)cc(Cl)c1O)c1[nH]c(F)c(Br)c1Br
CC50 [6]: > 100 µM
CC50 [7]: > 100 µM
EC50 [8]: 8.56 µM

IC50 [9]: 5.2 µM
Structure (SMILES): [N-]=[N+]=NCc1cnc(C(=O)NO)c(O)c1CO
EC50 [10]: 4.6 µM
CC50 [11]: 22 µM

IC50 [17]: 0.82 µM
half-life [19]: 20 min
Structure (SMILES): Clc1nc2n[nH]nc2nc1Cl
fold change (FC) [18]: 10
CC50 at 24 h [20]: > 50 µM

IC50 [25]: 39.1 µM
Structure (SMILES): COc1ccc2cc3[n+](cc2c1OC)CCc1cc2c(cc1-3)OCO2 [BERBERINE]
inhibition at 160 µM [23]: 77.6%
CC50 [24]: 221 µM
